Measurements published in ChEMBL document CHEMBL4680144, “N-thiadiazole-4-hydroxy-2-quinolone-3-carboxamides bearing heteroaromatic rings as novel antibacterial agents: Design, synthesis, biological evaluation and target identification” (Eur J Med Chem, 2020).
In brackets after ≈: the same amount, converted by molar mass.

How the values were obtained:
Staphylococcus aureus [1] = experiment: Antibacterial activity against wild type methicillin-sensitive Staphylococcus aureus ATCC 29213 assessed as inhibition of bacterial growth incubated for 18 to 24 hrs by broth microdilution method; format: functional; settings: time 18-24 hrs
[2] = Inhibition of Staphylococcus aureus Gyrase B using linear pBR322 DNA as substrate incubated for 30 mins in presence of ATP by ADP-Glo assay
Staphylococcus aureus [3] = experiment: Antibacterial activity against methicillin-resistant Staphylococcus aureus clinical isolate 15-1 assessed as inhibition of bacterial growth incubated for 18 to 24 hrs by broth microdilution method; format: functional; settings: time 18-24 hrs
Staphylococcus aureus [4] = experiment: Antibacterial activity against methicillin-resistant Staphylococcus aureus clinical isolate 15-2 assessed as inhibition of bacterial growth incubated for 18 to 24 hrs by broth microdilution method; format: functional; settings: time 18-24 hrs
Staphylococcus aureus [5] = experiment: Antibacterial activity against methicillin-resistant Staphylococcus aureus clinical isolate 15-3 assessed as inhibition of bacterial growth incubated for 18 to 24 hrs by broth microdilution method; format: functional; settings: time 18-24 hrs
Staphylococcus aureus [6] = experiment: Antibacterial activity against methicillin-resistant Staphylococcus aureus clinical isolate 15-6 assessed as inhibition of bacterial growth incubated for 18 to 24 hrs by broth microdilution method; format: functional; settings: time 18-24 hrs
Staphylococcus aureus [7] = experiment: Antibacterial activity against methicillin-resistant Staphylococcus aureus clinical isolate 15-7 assessed as inhibition of bacterial growth incubated for 18 to 24 hrs by broth microdilution method; format: functional; settings: time 18-24 hrs
Staphylococcus aureus [8] = experiment: Antibacterial activity against methicillin-resistant Staphylococcus aureus clinical isolate 15-8 assessed as inhibition of bacterial growth incubated for 18 to 24 hrs by broth microdilution method; format: functional; settings: time 18-24 hrs
Staphylococcus aureus [9] = experiment: Antibacterial activity against methicillin-resistant Staphylococcus aureus clinical isolate 15-9 assessed as inhibition of bacterial growth incubated for 18 to 24 hrs by broth microdilution method; format: functional; settings: time 18-24 hrs
Staphylococcus aureus [10] = experiment: Antibacterial activity against methicillin resistant and vancomycin-intermediate sensitive Staphylococcus aureus ATCC 700699 assessed as inhibition of bacterial growth incubated for 18 to 24 hrs by broth microdilution method; format: functional; settings: time 18-24 hrs
Staphylococcus aureus [11] = experiment: Antibacterial activity against methicillin resistant and vancomycin-intermediate sensitive Staphylococcus aureus ATCC 700788 assessed as inhibition of bacterial growth incubated for 18 to 24 hrs by broth microdilution method; format: functional; settings: time 18-24 hrs
[12] = system: Staphylococcus epidermidis; experiment: Antibacterial activity against methicillin-sensitive Staphylococcus epidermidis clinical isolate 15-3 assessed as inhibition of bacterial growth incubated for 18 to 24 hrs by broth microdilution method; format: functional; settings: time 18-24 hrs
[13] = system: Staphylococcus epidermidis; experiment: Antibacterial activity against methicillin-sensitive Staphylococcus epidermidis clinical isolate 15-4 assessed as inhibition of bacterial growth incubated for 18 to 24 hrs by broth microdilution method; format: functional; settings: time 18-24 hrs
[14] = system: Staphylococcus epidermidis; experiment: Antibacterial activity against methicillin-resistant Staphylococcus epidermidis clinical isolate 15-1 assessed as inhibition of bacterial growth incubated for 18 to 24 hrs by broth microdilution method; format: functional; settings: time 18-24 hrs
[15] = system: Staphylococcus epidermidis; experiment: Antibacterial activity against methicillin-resistant Staphylococcus epidermidis clinical isolate 15-2 assessed as inhibition of bacterial growth incubated for 18 to 24 hrs by broth microdilution method; format: functional; settings: time 18-24 hrs
[16] = system: Staphylococcus epidermidis; experiment: Antibacterial activity against methicillin-resistant Staphylococcus epidermidis clinical isolate 15-3 assessed as inhibition of bacterial growth incubated for 18 to 24 hrs by broth microdilution method; format: functional; settings: time 18-24 hrs
Enterococcus faecalis [17] = experiment: Antibacterial activity against Enterococcus faecalis clinical isolate 15-1 assessed as inhibition of bacterial growth incubated for 18 to 24 hrs by broth microdilution method; format: functional; settings: time 18-24 hrs
Enterococcus faecalis [18] = experiment: Antibacterial activity against Enterococcus faecalis clinical isolate 15-2 assessed as inhibition of bacterial growth incubated for 18 to 24 hrs by broth microdilution method; format: functional; settings: time 18-24 hrs
Enterococcus faecium [19] = experiment: Antibacterial activity against Enterococcus faecium clinical isolate 15-1 assessed as inhibition of bacterial growth incubated for 18 to 24 hrs by broth microdilution method; format: functional; settings: time 18-24 hrs
Enterococcus faecium [20] = experiment: Antibacterial activity against Enterococcus faecium clinical isolate 15-2 assessed as inhibition of bacterial growth incubated for 18 to 24 hrs by broth microdilution method; format: functional; settings: time 18-24 hrs
Enterococcus faecalis [21] = experiment: Antibacterial activity against vancomycin-resistant Enterococcus faecalis ATCC 51299 assessed as inhibition of bacterial growth incubated for 18 to 24 hrs by broth microdilution method; format: functional; settings: time 18-24 hrs
Enterococcus faecalis [22] = experiment: Antibacterial activity against vancomycin-resistant Enterococcus faecalis ATCC 700802 assessed as inhibition of bacterial growth incubated for 18 to 24 hrs by broth microdilution method; format: functional; settings: time 18-24 hrs
Enterococcus faecalis [23] = experiment: Antibacterial activity against vancomycin-resistant Enterococcus faecalis ATCC 51575 assessed as inhibition of bacterial growth incubated for 18 to 24 hrs by broth microdilution method; format: functional; settings: time 18-24 hrs

SMILES: CCn1c(=O)c(C(=O)Nc2nnc(-c3ccc(Cl)cc3)s2)c(O)c2ccccc21
- MIC (Staphylococcus aureus [1]): 12.5 µg/mL (≈ 29.3 µM)
- IC50 [2]: 1460 nM

SMILES: CCc1nnc(NC(=O)c2c(O)c3ccccc3n(CC)c2=O)s1
- MIC (Staphylococcus aureus [1]): 0.78 µg/mL (≈ 2.26 µM)
- MIC (Staphylococcus aureus [3]): 2 µg/mL (≈ 5.81 µM)
- MIC (Staphylococcus aureus [4]): 2 µg/mL (≈ 5.81 µM)
- MIC (Staphylococcus aureus [5]): 2 µg/mL (≈ 5.81 µM)
- MIC (Staphylococcus aureus [6]): 2 µg/mL (≈ 5.81 µM)
- MIC (Staphylococcus aureus [7]): 1 µg/mL (≈ 2.9 µM)
- MIC (Staphylococcus aureus [8]): 1 µg/mL (≈ 2.9 µM)
- MIC (Staphylococcus aureus [9]): 1 µg/mL (≈ 2.9 µM)
- MIC (Staphylococcus aureus [10]): 2 µg/mL (≈ 5.81 µM)
- MIC (Staphylococcus aureus [11]): 2 µg/mL (≈ 5.81 µM)
- MIC [12]: 2 µg/mL (≈ 5.81 µM)
- MIC [13]: 2 µg/mL (≈ 5.81 µM)
- MIC [14]: 2 µg/mL (≈ 5.81 µM)
- MIC [15]: 2 µg/mL (≈ 5.81 µM)
- MIC [16]: 2 µg/mL (≈ 5.81 µM)
- MIC (Enterococcus faecalis [17]): 2 µg/mL (≈ 5.81 µM)
- MIC (Enterococcus faecalis [18]): 2 µg/mL (≈ 5.81 µM)
- MIC (Enterococcus faecium [19]): 4 µg/mL (≈ 11.6 µM)
- MIC (Enterococcus faecium [20]): 2 µg/mL (≈ 5.81 µM)
- MIC (Enterococcus faecalis [21]): 8 µg/mL (≈ 23.2 µM)
- MIC (Enterococcus faecalis [22]): 8 µg/mL (≈ 23.2 µM)
- MIC (Enterococcus faecalis [23]): 8 µg/mL (≈ 23.2 µM)
- IC50 [2]: 450 nM

SMILES: CCn1c(=O)c(C(=O)Nc2nnc(C3CC3)s2)c(O)c2ccccc21
- MIC (Staphylococcus aureus [1]): 3.12 µg/mL (≈ 8.75 µM)
- IC50 [2]: 580 nM

SMILES: CCn1c(=O)c(C(=O)Nc2nnc(-c3cccs3)s2)c(O)c2ccccc21
- MIC (Staphylococcus aureus [1]): 3.12 µg/mL (≈ 7.83 µM)
- IC50 [2]: 220 nM

SMILES: CCn1c(=O)c(C(=O)Nc2nnc(-c3ccc(N(C)C)cc3)s2)c(O)c2ccccc21
- MIC (Staphylococcus aureus [1]): 3.12 µg/mL (≈ 7.16 µM)
- IC50 [2]: 2660 nM

SMILES: CCn1c(=O)c(C(=O)Nc2nncs2)c(O)c2ccccc21
- MIC (Staphylococcus aureus [1]): 1.56 µg/mL (≈ 4.93 µM)
- IC50 [2]: 110 nM

SMILES: CCn1c(=O)c(C(=O)Nc2nnc(C)s2)c(O)c2ccccc21
- MIC (Staphylococcus aureus [1]): 0.78 µg/mL (≈ 2.36 µM)
- MIC (Staphylococcus aureus [3]): 2 µg/mL (≈ 6.05 µM)
- MIC (Staphylococcus aureus [4]): 4 µg/mL (≈ 12.1 µM)
- MIC (Staphylococcus aureus [5]): 2 µg/mL (≈ 6.05 µM)
- MIC (Staphylococcus aureus [6]): 2 µg/mL (≈ 6.05 µM)
- MIC (Staphylococcus aureus [7]): 4 µg/mL (≈ 12.1 µM)
- MIC (Staphylococcus aureus [8]): 2 µg/mL (≈ 6.05 µM)
- MIC (Staphylococcus aureus [9]): 4 µg/mL (≈ 12.1 µM)
- MIC (Staphylococcus aureus [10]): > 64 µg/mL
- MIC (Staphylococcus aureus [11]): > 64 µg/mL
- MIC [12]: > 64 µg/mL
- MIC [13]: > 64 µg/mL
- MIC [14]: > 64 µg/mL
- MIC [15]: > 64 µg/mL
- MIC (Enterococcus faecalis [17]): > 64 µg/mL
- MIC (Enterococcus faecalis [18]): > 64 µg/mL
- MIC (Enterococcus faecium [19]): > 64 µg/mL
- MIC (Enterococcus faecium [20]): > 64 µg/mL
- MIC (Enterococcus faecalis [21]): > 64 µg/mL
- MIC (Enterococcus faecalis [22]): > 64 µg/mL
- MIC (Enterococcus faecalis [23]): > 64 µg/mL
- IC50 [2]: 240 nM

SMILES: CCn1c(=O)c(C(=O)Nc2nnc(-c3ccc(OC(F)F)cc3)s2)c(O)c2ccccc21
- MIC (Staphylococcus aureus [1]): 12.5 µg/mL (≈ 27.3 µM)
- IC50 [2]: 1420 nM
